Data reported in US20260053778A1, “USE OF NOVEL PPAR ACTIVITY MODULATOR FOR PREVENTION, AMELIORATION OR TREATMENT OF DEGENERATIVE BRAIN DISEASES” (POSTECH RESEARCH AND BUSINESS DEVELOPMENT FOUNDATION, priority 2022, published 2026).

Experiments:
[1] = molecular target: T1, HIS-tagged recombinant PPAR γ protein (Homo sapiens, UniProt P37231); test: CNBr-drug and protein binding experiment, PPARγ; settings: Western blotting after 24 h incubation
T1 sequence (P37231 238-503 limits assumed): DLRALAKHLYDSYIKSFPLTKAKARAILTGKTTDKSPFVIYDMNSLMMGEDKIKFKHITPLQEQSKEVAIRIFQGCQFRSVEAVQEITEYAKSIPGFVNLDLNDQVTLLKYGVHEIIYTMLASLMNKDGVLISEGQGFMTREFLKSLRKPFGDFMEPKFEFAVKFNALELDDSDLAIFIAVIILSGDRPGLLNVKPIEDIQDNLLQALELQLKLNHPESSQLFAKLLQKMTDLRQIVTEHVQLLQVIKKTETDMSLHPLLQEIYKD
Procedure: Since the computer prediction program predicted that DTMB binds to PPAR transcription factors, CNBr-drug and protein binding experiments were conducted to confirm whether DTMB actually binds to PPAR. To determine the actual degree of drug-protein binding, the reaction of the protein of the PPAR-α, β/δ, γ ligand-binding portion with the DTMB drug-bound CNBr beads was confirmed through Western blotting.
Specifically, CNBr Sepharose 4B beads were prepared and activated according to the instructions. 100 mg of CNBr-activated Sepharose 4B beads were incubated with drugs or DMSO at 4° C. for 18 h. The drug-bound beads reacted with HIS-tagged recombinant PPAR α, β/δ, and γ proteins. After 24 h of incubation, Western blotting experiments were performed to confirm whether the recombinant proteins bound to the drug-bound beads.

[2] = molecular target: T2, PPARα (Homo sapiens, UniProt Q07869); test: GAL4-transactivation assay in HEK293A cells, PPARα; format: cell-based; settings: GAL4 reporter, 24 h, compared with WY14643
T2 construct: expressed in transfected cells; host or cells: HEK293A
T2 sequence (Q07869 1-468): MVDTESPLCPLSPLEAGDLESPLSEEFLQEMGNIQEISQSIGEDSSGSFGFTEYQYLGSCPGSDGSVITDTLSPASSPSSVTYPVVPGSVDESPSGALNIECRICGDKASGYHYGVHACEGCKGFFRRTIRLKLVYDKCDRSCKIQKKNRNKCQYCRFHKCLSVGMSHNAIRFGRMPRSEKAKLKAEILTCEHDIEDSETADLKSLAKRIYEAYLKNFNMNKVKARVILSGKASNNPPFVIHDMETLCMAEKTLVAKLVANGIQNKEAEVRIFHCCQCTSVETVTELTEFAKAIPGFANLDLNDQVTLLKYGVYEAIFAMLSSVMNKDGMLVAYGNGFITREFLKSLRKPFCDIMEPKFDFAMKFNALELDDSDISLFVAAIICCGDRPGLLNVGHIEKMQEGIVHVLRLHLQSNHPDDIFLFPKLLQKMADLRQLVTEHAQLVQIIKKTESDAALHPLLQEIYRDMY
Procedure: A GAL4-transactivation assay experiment was performed to determine whether the drug was bound to the PPAR ligand binding site. HEK293A cells were transfected with GAL4-reporter plasmid and pGL4.74 (Promega, Madison, WI, USA) as an internal standard via electroporation using the Neon Transfection System (Invitrogen, Carlsbad, CA, USA). All vectors were kindly provided by Professor Kanno Yuichiro, Toho University, Japan. After overnight culture, cells were treated with DTMB and each positive control compound for 24 h. Cells were then harvested, resuspended in luciferase lysis buffer (Promega), and incubated on ice for 10 min. Cell debris was removed by centrifugation at 20,000×g, 4° C. for 10 min, and the supernatant was used for the luciferase assay. Luciferase activity was measured using the Dual Luciferase Reporter Assay System (Promega) according to the manufacturer's instructions. In the measurement experiment, firefly luciferase activity was normalized to Renilla luciferase activity. To investigate the concentration-dependent effect of DTMB drug, EC50 values were measured by treating various concentrations of DTMB.

[3] = test system: HMO6 cell line; test: Cell viability assay (MTT), HMO6; format: cell-based; settings: HMO6, 48 h, at higher concentrations
Procedure: Cell viability was measured by a chromogenic assay that biologically reduces 3-(4,5-dimethyl-thiazol-2-yl)-2,5-diphenyltetrazolium bromide (MTT) to formazan in living cells. Briefly, cells were cultured in 96-well plates in a final volume of 100 μL. After 24 h, the culture medium was replaced with fresh medium containing DTMB compound, and the cells were cultured for another 48 h. Next, MTT (dissolved in PBS at 5 mg/mL) was added to the culture medium. The cells were cultured in the dark at 37° C. for 1 h, and then the supernatant was removed from the wells. The formazan crystals were dissolved by adding total MTT solvent (4 mM HCl and 0.1% Nonidet P-40, both dissolved in isopropanol), and the absorbance was measured at 570 nm using a microplate reader, Infinite 200 Pro NanoQuant microplate reader (TECAN, Switzerland).

[4] = test system: microglial cells isolated from mice; test: Western blotting of NF-κB, NLRP-3 and ASC in primary microglia; format: cell-based, mouse; settings: primary microglia treated with Aβ aggregates or LPS, Western blot
Procedure: To confirm the mechanism by which DTMB exerts its anti-inflammatory effect, microglial cells isolated from mice were treated with Aβ aggregates or LPS to induce an inflammatory response, and then DTMB was treated to determine the levels of NF-κB, NLRP-3, and ASC proteins by western blotting.
The cells were lysed with lysis buffer containing 50 mM Tris (pH 7.4), 140 mM NaCl, 5 mM EDTA, and protease inhibitor tablets, and then sonicated. The protein concentration of the lysate was determined using Bradford reagent (AMERSCO, MA, USA). Proteins were separated by sodium dodecyl sulfate (SDS) polyacrylamide gel electrophoresis, transferred to nitrocellulose membranes (Pall Corporation, New York, NY, USA), and incubated with blocking buffer (5% nonfat dry milk and 0.1% Tween 20 in TBS) for 30 min. Western blot analysis was performed using primary antibodies against NF-κB, NLRP3, and ASC (Cell Signaling Technology, Danvers, MA, USA). Secondary antibodies from rabbit (Promega), rat, and goat (Bethyl Laboratories) were used, and detection was performed using SUPEX ECL reagent (Neuronex, Korea) and ImageQuant LAS-4000 (GE Healthcare, MA, USA) according to the manufacturer's instructions. Integrated blot densities were quantified using ImageJ.

With `COc1ccc(-c2cc(=O)oc3c(C)c(OC(=O)[C@H](Cc4c[nH]c5ccccc45)NC(=O)OC(C)(C)C)ccc23)cc1` [DTMB, [4-(4-Methoxyphenyl)-8-methyl-2-oxochromen-7-yl](2S)-3-(1H-indol-3-yl)-2-[(2-methylpropan-2-yl)oxycarbonylamino]propanoate] as the molecule, how does the “Binding of PPARγ ligand-binding protein to drug-bound CNBr beads” value [1] read?
The value was “binds to all subtypes of PPAR”.

What about the “PPARα activation versus positive control” value [2] of the same molecule?
The value was “activated at a lower concentration than WY14643”.

And the “Cytotoxicity (MTT)” value [3]?
Its value is “no cytotoxicity”.

And the NF-κB protein level [4]?
Its NF-κB protein level is “reducing NF-κB”.

And the NLRP3 protein level [4]?
The NLRP3 protein level was “reduced”.
